# Several values for one entry are separate records, joined by “and”; a condition that tells them apart may be missing. Identical values can stand only once. Like-named read-outs stand apart in the source and are kept apart here. *1 amine or outer side, *2 acyl side, *3 side chain or, on linkers, in order; H or OH if unused. Where a SMILES comes first, the peptide text is derived from it. Bridges are numbered along the chain shown (N, C = ends). Roman numbers before positions name the chains, in order. [ ]: non-standard residue; d: D form. Actinocin(9to1) = Cc1c2oc3c(C)ccc(C(=O)[*:1])c3nc-2c(C(=O)[*:2])c(N)c1=O; NMeV = CN[C@H](C(=O)O)C(C)C; Sar = CNCC(=O)O
# Assays:
# [1] = system: nitric oxide synthase in rat aortic smooth muscle cells; assay: Induction and assay of nitrite synthesis in smooth muscle cells; assay type: cell-based
# Protocol: Rat aortic smooth muscle cells were incubated with RPMI-1640 medium containing 10% bovine calf serum, 25 mM HEPES buffer (pH 7.4), 2 mM glutamine, […], and IL-1, IFN-γ, and various inhibitors at the concentrations indicated in the figure legends. At the desired times, nitrite concentration in the culture medium was measured using the standard Griess assay adapted to a 96-well microtiter plate reader.^36 The Griess assay is also described in Gross et al.^37 (1991). Thus, 100 µL of Griess reagent (0.5% sulfanilic acid, 0.05% naphthalenediamine, and 2.5% phosphoric acid) was added to an equal volume of culture medium, and the OD550 was measured and related to nitrite concentration by reference to a standard curve. […]
# Rat aortic smooth muscle cells were incubated with RPMI-1640 medium containing 10% bovine calf serum, 25 mM HEPES buffer (pH 7.4), 2mM glutamine, 80 U/mL penicillin, 80 µg/mL streptomycin, 2 µg/mL fungizone, and IL-1, IFN-γ, and various inhibitors at the concentrations indicated in the figure legends. At the desired times, nitrite concentration in the culture medium was measured using the standard Griess assay (Green, L., et al. Anal. Biochem. 126:131-138, 1982) adapted to a 96-well microtiter plate reader (Gross, S.S., et al. Biochem. Biophys. Res. Commun. 178:823-829, 1991). […]
# [2] = Cell respiration assay (MTT); assay type: cell-based; settings: rat, aortic smooth muscle cells; read-out: MTT reduction [mean ± SD], of that measured in control cells treated with IL-1 alone
# Source text: The extent of reduction of MTT to formazan within cells, quantitated by measurement of the optical density at 550 nm (OD550), was taken as an indicator of cellular respiration.
# [3] = system: IL-1-Induced Hypotension in Dogs; assay: IL-1-induced hypotension in dogs; assay type: in vivo; settings: for MAP increase after NAA: NAA 20 mg/kg iv single bolus
# Protocol: • FIGURE 1 - Reversal of hypotension associated with the administration of IL-1 to dogs. The tracing shown is a representative experiment that was repeated four times. Each dog was anesthetized and […] as described herein, and baseline cardiovascular data were monitored for 30 minutes. IL-1 was dissolved in phosphate-buffered saline (pH 7.4) containing 1 mg/ml of dog albumin, and the resulting solution was infused intravenously for three minutes to deliver a dose of 50 µg/kg. MAP was continuously monitored; when a stable nadir was reached and maintained for more than 10 minutes or when MAP dropped below 50 mm Hg, NAA (20 mg/kg in 10 ml phosphate-buffered saline) was administered by intravenous infusion for 30 seconds. Sixty minutes after MAP was restored to baseline or higher values, L-arginine (400 mg/kg in 20 ml phosphate-buffered saline) was administered by slow intravenous infusion for 5 minutes. Anesthetized dogs given IL-1 (50 µg/kg) developed a progressive, moderately severe hypotension, with MAP decreasing from a baseline of 111 +/- 7 mm Hg to 80 +/- 2 mm Hg within about 3 hours. Hypotension was rapidly reversed by the intravenous administration of a single bolus dose of NAA (20 mg/kg, 88 umol/kg), with MAP increasing by from 46 +/- 9 mm Hg (58%_ to 125 +/- 8 mm Hg. • FIGURES 2A, 2B, 2C - Inhibition of IL-1-activated NO· production by N^ω-substituted arginine analogues. Figure 2A: Comparison of nitrite synthesis inhibition in smooth muscle cells by the L-isomers of NAA, NMA, and NNA and by the D-isomer of NMA. Figure 2B: Concentration dependence of nitrite synthesis inhibition in smooth muscle cells by NAA as a function of different L-arginine concentration in the culture medium. Confluent monolayers of smooth muscle cells in 96-well microtiter plates were treated with a combination of 100 ng/ml IL-1 and 50 ng/ml IFN-γ for 24 hours. Cells were then washed with Hanks' balanced salt solution, and fresh medium containing the indicated concentration of L-arginine was added. Points indicate means ± SD of nitrite production, expressed as percent of control, during a 16-hour exposure to arginine analogues (n = 3-4). Figure 2C: Effect of NAA on smooth muscle cell NO· synthase. Cytosol from cytokine-induced smooth muscle cells (∼2 µg protein) was incubated with 1 mM L-arginine, 0.5 mM NADPH, 1 mM dithiothreitol, 10 µM flavin-adenine dinucleotide, 10 µM tetrahydrobiopterin, and 0.1 U/ml dihydropteridine reductase in a total volume of 100 µL. The time course of Fe^2+-myoglobin oxidation was measured in the absence (control) or presence of 300 µM NAA (+NAA). […] FIGURE A: Time course of nitrite synthesis elicited by 40 ng/mL IL-1 alone (open circles) and by IL-1 in the presence of 50 ng/ml IFN-γ (open triangles). […] Inclusion of IL-1 receptor antagonist (40 µg/mL; filled symbols) in the culture medium inhibited nitrite production stimulated by both IL-1 and IL-1 plus IFN-γ. FIGURE B: IL-1 concentration dependence for smooth muscle cell nitrite production. Data points indicate nitrite produced during a 29-hour incubation with the indicated concentration of IL-1 alone (open circles) or in the presence of IL-1 plus 50 ng/mL IFN-γ (open triangles). All values are means ± SD for nitrite production by confluent smooth muscle cell monolayers grown in 96-well microtiter plates (60-80 X 10^3 cells per well; n = 3-4).
# Experiments were conducted on healthy mongrel dogs that were free of microfilaria and weighed 25-28 kg each. […]
# [4] = system: hypotension associated with the administration of TNF in the dog; assay: TNF-induced hypotension in the dog; assay type: in vivo, dogs; settings: dog; Figure 7
# Protocol: Recombinant human TNF, specific activity 2 x 10^7 units/mg, was from the Dainippon Chemical Corporation, Tokyo, Japan. TNF was administered at a dose of 10 µg//kg in a volume of 10 ml of phosphate buffered saline containing 17 mg/ml of dog albumin. […] Arginine was obtained from Sigma Chemical Company, St. Louis, Mo.
# Four conditioned mongrel dogs, 2 males and 2 females, weighing 28 to 30 kg, were studied. Care of the animals were in accordance with the recommendations of the American Association for Accreditation of Laboratory Animals [DHEW(DHHS) publication no. (NIH) 78-23, revised, 1978]. On the day of the experiment, the dogs were fasted overnight. They were anesthetized with phenobarbital (25 mg/kg). The animals were then intubated orally with a #10 fr. endotracheal tube and ventilated with a Harvard pump ventilator at a rate of 14 breaths per minute and a tidal volume of 15 ml/kg. An arterial line was percutaneously placed in the femoral artery on the day of the experiment.
# Mean (electronic) and phasic systemic arterial pressures (SAP) were continuously recorded on a Hewlett-Packard recording system (model 7758B) using strain gauge manometers (Hewlett-Packard model 1290A) which were connected to the arterial line. Heart rate (HR) was determined from an EKG tracing and continuously recorded on the Hewlett-Packard recording system. Oxyhemoglobin saturation (SaO2) was obtained using a pulse oximeter (BIOX 111, Boulder, CO). Continuous time-series records of SAP, HR, and SaO2 were obtained using a Lab Master analog-to-digital convertor (16 channel, 12 bit, 30 kHz; Scientific Solutions, Inc.) sampling at 55 Hz and storing the 6 sec averages on a magnetic disk.
# [5] = system: Actinomycin D-Treated L929 Cells; assay: Cytolytic activity of rh-TNF against L929 cells; assay type: cell-based, murine; settings: murine L929 cells
# Protocol: TNF bioactivity was measured by the cytotoxicity towards murine L929 cells, in vitro. […]
# ET shock (lethal dose) = assay: Reversal of ET shock (lethal dose) by multiple doses of NAA; assay type: in vivo
# Protocol: The reversal of ET shock (lethal dose) by Nω-aminoarginine (NAA) for 4 hrs. […] Figure 8 depicts systemic arterial pressure (SAP) versus time (min). ET (2 mg/kg), a lethal dose, was infused over 60 min. and NAA administered at 97, 165, and 374 min. to maintain blood pressure. The animal was survived for 24 hours and then autopsied.
smiles,measurement,setting,value
"Cc1c2oc3c(C)ccc(C(=O)N[C@@H]4C(=O)N[C@H](C(C)C)C(=O)N5CCC[C@H]5C(=O)N(C)CC(=O)N(C)[C@@H](C(C)C)C(=O)O[C@@H]4C)c3nc-2c(C(=O)N[C@@H]2C(=O)N[C@H](C(C)C)C(=O)N3CCC[C@H]3C(=O)N(C)CC(=O)N(C)[C@@H](C(C)C)C(=O)O[C@@H]2C)c(N)c1=O [dactinomycin] (I: T[dV]P[Sar][NMeV] / II: T[dV]P[Sar][NMeV]; ester I:1-I:C, II:1-II:C; linker I:N-II:N via Actinocin(9to1))",nitrite produced,"[1]; cells cultured 14 hours with IL-1 (100 ng/mL) and IFN-γ (50 ng/mL) plus 0.5 mg/mL dactinomycin or 1 mg/mL cycloheximide, then 16 hours in cytokine-free medium, control 2.52",less than 0.1 nmol
same,viability,[2],101%
"N=C(NN)NCCC[C@H](N)C(=O)O [NAA, N^ω-amino-L-arginine]","systemic vascular resistance after injection of NAA, higher than baseline","[3]; IL-1-treated dogs, average",43%
same,MAP increase after NAA,[3]; anesthetized dogs (n = 4) made hypotensive with IL-1 50 µg/kg,46 ± 9 mm Hg and 46 +/- 9 mm Hg
same,average increase in MAP above baseline,"[3]; control dogs not given IL-1, NAA",20.1 ± 3.8 mm Hg
same,MAP after NAA,"[3]; dogs given IL-1 50 µg/kg (MAP 80 ± 2 before NAA), NAA 20 mg/kg iv",125 ± 8 mm Hg and 125 +/- 8 mm Hg
same,average increase of MAP following NAA above the pre-IL-1 baseline MAP,"[3]; dogs given IL-1 50 µg/kg, NAA 20 mg/kg",14.3 ± 7.7 mm
same,MAP increase after NAA,[3]; dogs given IL-1 50 µg/kg,58%
same,reduction in cardiac output compared with that after IL-1,"[3]; dogs treated with IL-1, then NAA, P = .037",25.2%
same,cardiac output after NAA,"[3]; dogs treated with IL-1, then NAA, baseline 2.25, P = .204",1.93 L/min
same,decrease in cardiac output,"[3]; dogs treated with NAA alone, P = .046",29.2%
same,duration physiologically acceptable MAP readings maintained,"[3]; second and third injections of NAA (20 mg/kg), cytokine-treated dogs",up to 7 hours
same,duration MAP maintained at baseline or higher levels,"[3]; single injections of NAA (20 mg/kg) in cytokine-treated dogs, no L-arginine",up to 60 minutes
same,reversing the hypotension associated with TNF administration,[4],as effective as NMMA
same,effect on the cytolytic effect of TNF towards tumor cells in vitro,[5],did not alter
same,survival of the animal,"ET shock (lethal dose); ET 2 mg/kg, multiple doses of NAA, then autopsied",24 h
same,"pathological changes in liver, lungs, heart, brain, bowel or kidney",ET shock (lethal dose); autopsy after 24 hours,No pathological changes were observed
C[C@@H]1C[C@@H]([C@H](O)CC2CC(=O)NC(=O)C2)C(=O)[C@@H](C)C1 [cycloheximide],nitrite produced,[1],less than 0.1 nmol
